Laboratory results from patent US8530652B2, “Pyrrolopyrazoles, potent kinase inhibitors” (Agouron Pharmaceuticals, Inc., priority 2005, dated 2013).

What was measured:
[1] = biological target: PAK4 kinase domain (PAK4 KD) (Homo sapiens (Human), UniProt O96013); assay: PAK4 kinase domain enzymatic assay (coupled PK/LDH, NADH absorbance at 340 nm); assay type: biochemical; conditions: PAK4 kinase domain, 25 nM PAK4 KD, 0.04 mM ATP, pH 7.5
Text: Cloning, expression, and purification of recombinant PAK4 Kinase domain (PAK4 KD): The cDNA coding for PAK4 was amplified from the EST clone (#12) (purchased from Research Genetics) by using PCR. […] The PCR amplified product was cloned into Topo vector (Invitrogen Inc.), and verified by DNA sequencing. PAK4 KD was then subcloned into expression plasmid pET28a(+), pET24a(+), or pGST4.5. The recombinant plasmids containing PAK4 KD was transformed into BL21(DE3) cells for recombinant protein expression. […] The cells were then harvested and lyzed for protein purification. Ni-NTA column (pET28a(+), pET24a(+)) and glutathione column (pGST4.5) were used for the purification.
PAK4 kinase domain enzymatic assay conditions: the enzymatic activity of PAK4 KD was measured by its ability to catalyze the transfer of a phosphate residue from a nucleoside triphosphate to an amino acid side chain of a commercially available peptide (amino acid sequence […]). The conversion of ATP to ADP accompanies the catalytic reaction. The PAK4 KD catalyzed production of ADP from ATP was coupled to the oxidation of NADH through the activities of pyruvate kinase (PK) and lactate dehydrogenase (LDH). The conversion of NADH to NAD^+ is monitored by the decrease in absorbance at 340 nm (e340=6.22 cm^−1mM^−1) using a Molecular Devices SPECTRAMAX 190 in conjunction with the Biomec FX. Typical reaction solutions contain 2 mM phosphoenolpyruvate, 0.35 mM NADH, 10 mM MgCl2, 1 mM DTT, 0.4 mM peptide ([…]) 0.04 mM ATP, 1 units/mL PK, 1 units/mL LDH, 0.01% Tween 20 in 50 mM HEPES, pH 7.5. […] The PAK KD Ki of each compound of the invention (the inhibitor) was calculated based on multiple of Percent Inhibition numbers of the inhibitor at different inhibitor concentrations. The peptide (amino sequence […]) was purchased from American Peptide Company. NADH, MgCl2, HEPES, DTT, ATP and PK/LDH were purchased from Sigma. Tween 20 was purchased from Calbiochem.

[2] = biological target: PAK4 kinase activity in whole cells (TR-293-KDG, modified HEK 293 overexpressing GEF-H1b and PAK4 KD) (Homo sapiens (Human), UniProt O96013); assay: PAK4 cellular assay: sandwich ELISA of PAK4-dependent phosphorylation of GEF-H1b in TR-293-KDG cells; assay type: cell-based; conditions: doxycycline-induced, 3-hour exposure, phospho-GEF-H1b ELISA
Text: A sandwich ELISA method was used to measure the PAK4 kinase activity in whole cells. The level of PAK4-dependent phosphorylation of GEF-H1b can be determined by monitoring the binding of a phosphospecific antibody to GEF-H1b. A modified HEK 293 cell line is used in the bioassay and it has been engineered to overexpress both GEF-H1b and the kinase domain (KD) of PAK4. The KD of PAK4 is inducible in this cell line by tetracycline (Trex system, Invitrogen). The name of this cell line has been designated TR-293-KDG. To establish a phosphorylation event on GEF-H1, cells are induced with doxycycline to express the PAK4 KD. […] Candidate substance effect is measured as the ability to block this phosphorylation event.
ELISA plate was prepared by pre-coating the plates with a capture antibody (α-HA-tag mouse monoclonal antibody), blocked with BSA, and washed in 0.1% tween 20 in tris-buffered saline (TBST). Tissue culture plates (precoated with poly-D-lysine) were seeded with TR-293-KDG cells. The TR-293-KDG Cells were induced to express the PAK4 KD with doxycycline overnight and subsequently & concomitantly treated with candidate substances or diluent for an additional 3-hour, continuous exposure. Cells were then lysed with a modified RIPA buffer supplemented with protease inhibitors. The fresh whole cell lysates were then added to the ELISA plate for 2-hours. Between all subsequent steps plates were washed 4 times with TBST. Detection antibody (recognizing the phospho-specific eptitope on GEF-H1b) was added for 1 hour, followed by addition of an enzyme linked goat α-rabbit secondary antibody for 45 minutes. […] EC50 values were calculated by sigmoid curve fitting using a four-parameter analysis.

Chain of PAK4 kinase activity in whole cells (TR-293-KDG, modified HEK 293 overexpressing GEF-H1b and PAK4 KD) (O96013 321-572): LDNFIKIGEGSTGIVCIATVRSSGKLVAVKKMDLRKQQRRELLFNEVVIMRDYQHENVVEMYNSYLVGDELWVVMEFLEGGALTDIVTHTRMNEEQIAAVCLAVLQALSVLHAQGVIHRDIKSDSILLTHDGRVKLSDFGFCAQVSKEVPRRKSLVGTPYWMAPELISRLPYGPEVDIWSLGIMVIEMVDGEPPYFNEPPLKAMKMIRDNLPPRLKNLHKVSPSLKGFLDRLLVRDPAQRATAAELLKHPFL
Chain of PAK4 kinase domain (PAK4 KD) (O96013 321-572): as above

Work on COc1ncc(F)c(Nc2n[nH]c3c2CN(C(=O)N[C@@H]2C[C@H]2c2ccccc2)C3(C)C)n1 (relative stereo) [Example 43, 3-[(5-fluoro-2-methoxypyrimidin-4-yl)amino]-6,6-dimethyl-N-[trans-2-phenylcyclopropyl]-4,6-dihydropyrrolo[3,4-c]pyrazole-5(1H)-carboxamide] yielded a Ki [1] of 450 nM and an EC50 [2] greater than 4000 nM.

Work on CCOc1ncc(F)c(Nc2n[nH]c3c2CN(C(=O)O[C@H](CN(C)C)c2ccccc2)C3(C)C)n1 [Example 72, (1S)-2-(dimethylamino)-1-phenylethyl 3-[(2-ethoxy-5-fluoropyrimidin-4-yl)amino]-6,6-dimethyl-4,6-dihydro-pyrrolo[3,4-c]pyrazole-5(1H)-carboxylate] yielded a Ki [1] of 16 nM and an EC50 [2] of 4.4 nM.

CC1(C)c2[nH]nc(Nc3nc(Cl)nc4ccccc34)c2CN1C(=O)NC1CC1c1ccccc1 (stereo not drawn) [Example 12, 3-[(2-chloroquinazolin-4-yl)amino]-6,6-dimethyl-N-[(trans-2-phenylcyclopropyl]-4,6-dihydropyrrolo[3,4-c]pyrazole-5(1H)-carboxamide] was tested, and the Ki [1] was 38 nM and the EC50 [2] was 78 nM.

In the case of CN(C)C[C@@H](OC(=O)N1Cc2c(Nc3ncnc4ccsc34)n[nH]c2C1(C)C)c1ccccc1 [Example 68, (1S)-2-(dimethylamino)-1-phenylethyl 6,6-dimethyl-3-(thieno[3,2-d]pyrimidin-4-ylamino)-4,6-dihydropyrrolo[3,4-c]pyrazole-5(1H)-carboxylate], the Ki [1] is reported as 6.7 nM and the EC50 [2] is reported as 20 nM.

In the case of CC1(C)c2[nH]nc(Nc3ncnc4sccc34)c2CN1C(=O)N[C@@H]1C[C@H]1c1ccccc1 [Example 50, 6,6-dimethyl-N-[(1R,2S)-2-phenylcyclopropyl]-3-(thieno[2,3-d]pyrimidin-4-ylamino)-4,6-dihydropyrrolo[3,4-c]pyrazole-5(1H)-carboxamide], the Ki [1] is reported as 16 nM and the EC50 [2] is reported as 340 nM.

For CC1(C)c2[nH]nc(Nc3nc(Cl)nc4ccsc34)c2CN1C(=O)N[C@@H]1C[C@H]1c1ccccc1 (relative stereo) [Example 2, 3-[(2-chlorothieno[3,2-d]pyrimidin-4-yl)amino]-6,6-dimethyl-N-[trans-2-phenylcyclopropyl]-4,6-dihydropyrrolo[3,4-c]pyrazole-5(1H)-carboxamide], the Ki [1] was 14 nM and the EC50 [2] was 36 nM.

COc1ncc(F)c(Nc2n[nH]c3c2CN(C(=O)N[C@H](CN(C)C)c2ccccc2)C3(C)C)n1 [Example 66, N-[(1S)-2-(dimethylamino)-1-phenylethyl]-3-[(5-fluoro-2-methoxypyrimidin-4-yl)amino]-6,6-dimethyl-4,6-dihydropyrrolo[3,4-c]pyrazole-5(1H)-carboxamide] gave a Ki [1] of 170 nM and an EC50 [2] of less than 3.9 nM.

CN(C)C[C@@H](NC(=O)N1Cc2c(Nc3nc(Cl)nc4ccsc34)n[nH]c2C1(C)C)c1ccccc1 [Example 6, 3-[(2-chlorothieno[3,2-d]pyrimidin-4-yl)amino]-N-[(1S)-2-(dimethylamino)-1-phenylethyl]-6,6-dimethyl-4,6-dihydropyrrolo[3,4-c]pyrazole-5(1H)-carboxamide] gave a Ki [1] of 2.8 nM and an EC50 [2] of 0.94 nM.

For Cc1nc(Nc2n[nH]c3c2CN(C(=O)N[C@@H]2C[C@H]2c2ccccc2)C3(C)C)cc(N(C)C)n1 (relative stereo) [Example 38, 3-{[6-(dimethylamino)-2-methylpyrimidin-4-yl]amino}-6,6-dimethyl-N-[trans-2-phenylcyclopropyl]-4,6-dihydropyrrolo[3,4-c]pyrazole-5(1H)-carboxamide], the Ki [1] was 96 nM and the EC50 [2] was 1470 nM.

In the case of Cc1ncc(F)c(Nc2n[nH]c3c2CN(C(=O)N[C@@H]2C[C@H]2c2ccccc2)C3(C)C)n1 (relative stereo) [Example 44, 3-[(5-fluoro-2-methylpyrimidin-4-yl)amino]-6,6-dimethyl-N-[trans-2-phenylcyclopropyl]-4,6-dihydropyrrolo[3,4-c]pyrazole-5(1H)-carboxamide], the Ki [1] is reported as 230 nM and the EC50 [2] is reported as greater than 4000 nM.

CC1(C)c2[nH]nc(Nc3ncnc4ccsc34)c2CN1C(=O)N[C@H]1C[C@@H]1c1ccccc1 (relative stereo) [Example 1, 6,6-dimethyl-N-[trans-2-phenylcyclopropyl]-3-(thieno[3,2-d]pyrimidin-4-ylamino)-4,6-dihydropyrrolo[3,4-c]pyrazole-5(1H)-carboxamide] was tested, and the Ki [1] was 41 nM and the EC50 [2] was greater than 2000 nM.

Compound CN(C)C[C@@H](NC(=O)N1Cc2c(Nc3nc(C#N)nc4ccccc34)n[nH]c2C1(C)C)c1ccccc1 [Example 64, 3-[(2-cyanoquinazolin-4-yl)amino]-N-[(1S)-2-(dimethylamino)-1-phenylethyl]-6,6-dimethyl-4,6-dihydropyrrolo[3,4-c]pyrazole-5(1H)-carboxamide] has a Ki [1] of 3 nM and an EC50 [2] of less than 3.9 nM.

COc1nc(Nc2n[nH]c3c2CN(C(=O)NC2C[C@@H]2c2ccccc2)C3(C)C)nc(N2CCC[C@H]2CO)n1 (stereo partly drawn) [Example 16, 3-({4-[(2S)-2-(hydroxymethyl)pyrrolidin-1-yl]-6-methoxy-1,3,5-triazin-2-yl}amino)-6,6-dimethyl-N-[trans-2-phenylcyclopropyl]-4,6-dihydropyrrolo[3,4-c]pyrazole-5(1H)-carboxamide] gave a Ki [1] of 76 nM and an EC50 [2] of 1270 nM.

Cc1nccc(Nc2n[nH]c3c2CN(C(=O)N[C@H](CN(C)C)c2ccccc2)C3(C)C)n1 [Example 65, N-[(1S)-2-(dimethylamino)-1-phenylethyl]-6,6-dimethyl-3-[(2-methylpyrimidin-4-yl)amino]-4,6-dihydropyrrolo[3,4-c]pyrazole-5(1H)-carboxamide] was tested, and the Ki [1] was 680 nM and the EC50 [2] was 67.1 nM.

Work on CN(C)c1nc(Cl)nc(Nc2n[nH]c3c2CN(C(=O)N[C@@H]2C[C@H]2c2ccccc2)C3(C)C)n1 (relative stereo) [Example 15, 3-{[4-chloro-6-(dimethylamino)-1,3,5-triazin-2-yl]amino}-6,6-dimethyl-N-[trans-2-phenylcyclopropyl]-4,6-dihydropyrrolo [3,4-c]pyrazole-5(1H)-carboxamide] yielded a Ki [1] of 90 nM and an EC50 [2] of 500 nM.

COc1nc(Cl)nc(Nc2n[nH]c3c2CN(C(=O)N[C@@H]2C[C@H]2c2ccccc2)C3(C)C)n1 (relative stereo) [Example 10, 3-[(4-chloro-6-methoxy-1,3,5-triazin-2-yl)amino]-6,6-dimethyl-N-[trans-2-phenylcyclopropyl]-4,6-dihydropyrrolo[3,4-c]pyrazole-5(1H)-carboxamide] was tested, and the Ki [1] was 120 nM and the EC50 [2] was greater than 4000 nM.

For CN(C)C[C@@H](NC(=O)N1Cc2c(Nc3ncncc3F)n[nH]c2C1(C)C)c1ccccc1 [Example 67, N-[(1S)-2-(dimethylamino)-1-phenylethyl]-3-[(5-fluoropyrimidin-4-yl)amino]-6,6-dimethyl-4,6-dihydropyrrolo[3,4-c]pyrazole-5(1H)-carboxamide], the Ki [1] was 280 nM and the EC50 [2] was 20 nM.

For CN(C)C[C@@H](NC(=O)N1Cc2c(Nc3ncnc4sccc34)n[nH]c2C1(C)C)c1ccccc1 [Example 61, N-[(1S)-2-(dimethylamino)-1-phenylethyl]-6,6-dimethyl-3-(thieno[2,3-d]pyrimidin-4-ylamino)-4,6-dihydropyrrolo[3,4-c]pyrazole-5(1H)-carboxamide], the Ki [1] was 22 nM and the EC50 [2] was 19 nM.

In the case of CN(C)C[C@@H](OC(=O)N1Cc2c(Nc3ncnc4sccc34)n[nH]c2C1(C)C)c1ccccc1 [Example 75, (1S)-2-(dimethylamino)-1-phenylethyl 6,6-dimethyl-3-(thieno[2,3-d]pyrimidin-4-ylamino)-4,6-dihydropyrrolo[3,4-c]pyrazole-5(1H)-carboxylate], the Ki [1] is reported as 5.2 nM and the EC50 [2] is reported as less than 3.9 nM.
